Reference: article PMC7481482, “Development of Anthraquinone Derivatives as Ectonucleoside Triphosphate Diphosphohydrolase (NTPDase) Inhibitors With Selectivity for NTPDase2 and NTPDase3” (Frontiers in Pharmacology, 2020)

How the values were obtained:
NTPDase1 = target: NTPDase1; set-up: method as in Lecka et al., 2013; details: ref Lecka et al., 2013; cited from earlier work
human NTPDase1 = target: T1, human NTPDase1 (Homo sapiens, UniProt P49961); test: Malachite green assay, human NTPDase1; format: biochemical; details: 2 μM compound; 50 µM ATP; COS-7 membrane preparation; read-out: % inhibition at 2 μM concentration, NTPDase1
T1 construct: expressed in transfected cells; host or cells: COS-7 cells (membrane preparation)
T1 sequence (P49961 1-510): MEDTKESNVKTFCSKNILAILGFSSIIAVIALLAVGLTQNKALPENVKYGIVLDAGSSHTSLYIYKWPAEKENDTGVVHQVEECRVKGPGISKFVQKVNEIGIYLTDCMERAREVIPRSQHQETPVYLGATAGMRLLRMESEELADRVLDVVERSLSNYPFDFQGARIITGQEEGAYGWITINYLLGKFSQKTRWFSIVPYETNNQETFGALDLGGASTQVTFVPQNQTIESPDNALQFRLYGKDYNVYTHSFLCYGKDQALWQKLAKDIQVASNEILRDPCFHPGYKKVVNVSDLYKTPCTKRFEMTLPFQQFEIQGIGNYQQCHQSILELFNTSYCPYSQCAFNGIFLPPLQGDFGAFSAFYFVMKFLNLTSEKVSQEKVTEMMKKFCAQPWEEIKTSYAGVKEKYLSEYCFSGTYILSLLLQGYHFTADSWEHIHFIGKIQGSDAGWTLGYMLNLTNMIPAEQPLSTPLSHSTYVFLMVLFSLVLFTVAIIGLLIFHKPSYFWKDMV
How it was run: (§1)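 COS-7 membranes expressing each NTPDase were preincubated with compound for 5 min at 37 °C, pH 7.4 HEPES buffer with 2 mM CaCl2/1 mM MgCl2. ATP was 50 µM for NTPDase1 and 100 µM for -2, -3, -8; reaction ran 15 min at 37 °C. Released phosphate read by malachite green at 600 nm; screen at 2 µM, IC50 over 0.03–30 µM in 2% DMSO.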

human NTPDase2 [1] = target: T2, human NTPDase2 (Homo sapiens, UniProt Q9Y5L3); test: Malachite green assay, human NTPDase2; format: biochemical; details: for inhibition at 2 µM: 2 μM compound, read-out: % inhibition at 2 μM concentration, NTPDase2
T2 construct: expressed in transfected cells; host or cells: COS-7 cells (membrane preparation)
T2 sequence (Q9Y5L3 1-495): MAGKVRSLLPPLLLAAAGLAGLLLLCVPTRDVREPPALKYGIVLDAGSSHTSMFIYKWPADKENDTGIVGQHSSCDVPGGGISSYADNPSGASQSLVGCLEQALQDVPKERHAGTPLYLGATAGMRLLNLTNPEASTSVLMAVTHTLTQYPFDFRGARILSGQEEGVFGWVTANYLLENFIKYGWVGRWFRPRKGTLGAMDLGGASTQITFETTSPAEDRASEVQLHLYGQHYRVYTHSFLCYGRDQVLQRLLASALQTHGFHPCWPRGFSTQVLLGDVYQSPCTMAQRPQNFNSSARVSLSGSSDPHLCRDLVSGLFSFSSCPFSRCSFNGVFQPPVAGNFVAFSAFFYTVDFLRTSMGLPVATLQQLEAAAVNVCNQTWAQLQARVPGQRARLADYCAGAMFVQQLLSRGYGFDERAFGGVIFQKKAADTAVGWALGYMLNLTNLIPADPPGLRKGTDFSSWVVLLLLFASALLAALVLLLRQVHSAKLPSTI
How it was run: as §1

human NTPDase3 = target: T3, human NTPDase3 (Homo sapiens, UniProt O75355); test: Malachite green assay, human NTPDase3; format: biochemical; details: 100 µM ATP, COS-7 membrane preparation; for inhibition at 2 µM: 2 μM compound, read-out: % inhibition at 2 μM concentration, NTPDase3
T3 construct: expressed in transfected cells; host or cells: COS-7 cells (membrane preparation)
T3 sequence (O75355 1-529): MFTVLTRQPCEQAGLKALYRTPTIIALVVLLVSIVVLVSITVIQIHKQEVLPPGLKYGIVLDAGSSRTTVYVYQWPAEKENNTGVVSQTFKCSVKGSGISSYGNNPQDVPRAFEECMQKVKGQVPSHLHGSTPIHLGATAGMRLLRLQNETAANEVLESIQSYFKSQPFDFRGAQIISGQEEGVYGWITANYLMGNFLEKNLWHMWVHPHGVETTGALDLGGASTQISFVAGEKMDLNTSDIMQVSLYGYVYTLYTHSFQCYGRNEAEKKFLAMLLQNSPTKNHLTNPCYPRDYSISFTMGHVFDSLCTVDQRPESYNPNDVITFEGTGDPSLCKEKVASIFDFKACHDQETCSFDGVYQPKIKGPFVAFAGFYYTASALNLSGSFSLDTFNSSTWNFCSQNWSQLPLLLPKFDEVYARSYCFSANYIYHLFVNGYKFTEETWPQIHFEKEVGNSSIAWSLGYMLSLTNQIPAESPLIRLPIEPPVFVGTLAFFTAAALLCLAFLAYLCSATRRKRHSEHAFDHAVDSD
How it was run: as §1

human NTPDase8 [2] = target: T4, human NTPDase8 (Homo sapiens, UniProt Q5MY95); test: Malachite green assay, human NTPDase8; format: biochemical; details: 2 μM compound; 100 µM ATP; COS-7 membrane preparation; read-out: % inhibition at 2 μM concentration, NTPDase8
T4 construct: expressed in transfected cells; host or cells: COS-7 cells (membrane preparation)
T4 sequence (Q5MY95 1-495): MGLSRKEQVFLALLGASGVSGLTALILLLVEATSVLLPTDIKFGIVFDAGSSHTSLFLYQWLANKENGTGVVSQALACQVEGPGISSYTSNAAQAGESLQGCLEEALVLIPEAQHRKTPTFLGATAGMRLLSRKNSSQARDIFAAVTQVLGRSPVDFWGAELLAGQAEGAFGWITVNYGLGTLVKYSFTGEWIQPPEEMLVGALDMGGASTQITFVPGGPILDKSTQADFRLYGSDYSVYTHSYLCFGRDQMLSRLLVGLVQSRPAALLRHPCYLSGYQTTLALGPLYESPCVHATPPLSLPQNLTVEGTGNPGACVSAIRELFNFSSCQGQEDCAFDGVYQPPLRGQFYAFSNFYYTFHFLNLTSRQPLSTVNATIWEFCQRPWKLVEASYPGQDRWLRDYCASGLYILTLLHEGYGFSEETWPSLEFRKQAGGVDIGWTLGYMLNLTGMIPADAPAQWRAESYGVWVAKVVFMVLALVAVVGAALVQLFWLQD
How it was run: as §1

rat NTPDase1 = details: cited from earlier work; for IC50: rat enzyme, ref Baqi et al., 2009b
rat NTPDase2 = details: cited from earlier work; for IC50: rat enzyme, ref Baqi et al., 2009b
rat NTPDase3 = details: cited from earlier work; for IC50: rat enzyme, ref Baqi et al., 2009b
rat CD73 = system: rat CD73; set-up: method as in Baqi et al., 2010; details: 1 mM concentration; ref Baqi et al., 2010; cited from earlier work
human NTPDase2 [3] = target: T2, human NTPDase2; details: ref Lévesque et al., 2007; cited from earlier work
human NTPDase8 [4] = target: T4, human NTPDase8; set-up: method as in Lévesque et al., 2007; details: ref Lévesque et al., 2007; cited from earlier work
[5] = 100 µM ATP, COS-7 membrane preparation

| inhibition at 2 µM (human NTPDase1) [%] | inhibition at 2 µM (human NTPDase2 [1]; [5]) [%] | inhibition at 2 µM (human NTPDase3) [%] | inhibition at 2 µM (human NTPDase8 [2]) [%] | melting point [°C] | Compound | other results |
| --- | --- | --- | --- | --- | --- | --- |
|  |  |  |  |  | CCCCSc1nc2c(N)ncnc2n1[C@@H]1O[C@H](COP(=O)(O)OP(=O)(O)OP(=O)(O)O)[C@@H](O)[C@H]1O [8-BuS-ATP] | Ki (NTPDase1): 800 nM |
|  |  |  |  |  | [TiW11CoO40]^8- [Compound 9, reference compound] | inhibition of rat NTPDase1 (concentration range in words) (rat NTPDase1; ref Müller et al., 2006): submicromolar concentration range; inhibition of rat NTPDase2 (concentration range in words) (rat NTPDase2; ref Müller et al., 2006): submicromolar concentration range; inhibition of rat NTPDase3 (concentration range in words) (rat NTPDase3; ref Müller et al., 2006): submicromolar concentration range |
| -4 | 22 | 1 | -21 |  | Cc1cccc(Nc2cc(S(=O)(=O)O)c(N)c3c2C(=O)c2ccccc2C3=O)c1 [Compound 6, reference compound] | IC50 (rat NTPDase1): 51500 nM; IC50 (rat NTPDase2): 12800 nM; IC50 (rat NTPDase3): 19100 nM |
|  |  |  |  |  | CCN(CC)c1ncnc2c1ncn2[C@@H]1O[C@H](COP(=O)(O)OP(=O)(O)C(Br)(Br)P(=O)(O)O)[C@@H](O)[C@H]1O [ARL67156] | inhibition of human NTPDase2 (in words) (human NTPDase2 [3]): does not inhibit; inhibition of human NTPDase8 (in words) (human NTPDase8 [4]): does not inhibit |
| -8 | 5 | -12 | -6 | > 300 | Nc1c(S(=O)(=O)[O-])cc(Nc2ccc(O)cc2F)c2c1C(=O)c1ccccc1C2=O.[Na+] [Compound 37, Sodium 1-amino-4-(2-fluoro-4-hydroxyphenylamino)-9,10-dioxo-9,10-dihydroanthracene-2-sulfonate] |  |
| 0 | 21 | 2 | 4 | > 300 | Nc1c(S(=O)(=O)[O-])cc(Nc2cccc(I)c2)c2c1C(=O)c1ccccc1C2=O.[Na+] [Compound 23, Sodium 1-amino-4-(3-iodophenylamino)-9,10-dioxo-9,10-dihydroanthracene-2-sulfonate] |  |
| -6 | 7 |  | -11 | > 300 | Nc1c(S(=O)(=O)[O-])cc(Nc2cccc(CC(=O)O)c2)c2c1C(=O)c1ccccc1C2=O.[Na+] [Compound 30, Sodium 1-amino-4-(3-(carboxymethyl)phenylamino)-9,10-dioxo-9,10-dihydroanthracene-2-sulfonate] | IC50 (human NTPDase3; read-out: IC50 ± SEM, NTPDase3): 1520 ± 280 nM |

| Compound | inhibition at 2 µM (human NTPDase1) [%] | inhibition at 2 µM (human NTPDase2 [1]; [5]) [%] | inhibition at 2 µM (human NTPDase3) [%] | inhibition at 2 µM (human NTPDase8 [2]) [%] | melting point [°C] | other results |
| --- | --- | --- | --- | --- | --- | --- |
| Nc1c(S(=O)(=O)O)cc(Nc2ccc3ccccc3c2)c2c1C(=O)c1ccccc1C2=O [Compound 18] | -8 | 34 | -9 | 3 |  | IC50 (rat NTPDase1): 328 nM; IC50 (rat NTPDase2): 19100 nM; IC50 (rat NTPDase3): 2220 nM |
| Nc1c(S(=O)(=O)O)cc(Nc2cc3ccccc3c3ccccc23)c2c1C(=O)c1ccccc1C2=O [Compound 20, 1-amino-4-(9-phenanthrylamino)-9,10-dioxo-9,10-dihydroanthracene-2-sulfonate] | -7 |  | -5 | 6 |  | IC50 (human NTPDase2 [1]; 100 µM ATP, COS-7 membrane preparation, read-out: IC50 ± SEM, NTPDase2): 539 ± 290 nM; inhibition type, NTPDase2 (human NTPDase2 [1]; Hanes-Woolf plot, 25-200 µM ATP, inhibitor 0, 0.25, 0.5, 1 µM): non-competitive; % inhibition of CD73 at 1 mM concentration (rat CD73): 58% |
